Measurements reported in ChEMBL document CHEMBL1201862, “PubChem BioAssay data set” (2004).
Activity calls are given as the source filed them.

How the values were obtained:
[1] = molecular target: T1, Polyadenylate-binding protein 1 (Homo sapiens, UniProt P11940); test: PABP1 MLLE–PAM2 interaction inhibitors, dose response, miRNA deadenylation inhibitor project, biochemical, fluorescence polarization, Cy5-PAM2 peptide, secondary (AID 602260); type: functional; details: read-out: IC50_Mean
[2] = molecular target: T1, Polyadenylate-binding protein 1; test: PABP1 MLLE–PAM2 binding inhibitor potency, dose response, biochemical, fluorescence polarization, FITC-PAM2 peptide (AID 602259); type: functional; details: read-out: IC50_Mean
Cytochrome P450 3A4 = Cytochrome P450 3A4 (Homo sapiens, UniProt P08684); details: Potency;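 note: confirmatory qHTS run detecting inhibitors and substrates of CYP3A4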
[3] = Luminescence Cell-Based Dose Confirmation HTS to Identify Activators of 5'UTR Stem-Loop Driven Alpha-Synuclein mRNA Translation in H4 Neuroglioblastoma Cells. [Related pubchem assays: 1829 (Project Summary), 1814 (Primary HTS)]; type: functional
[4] = Luminescence Cell-Based Dose Response HTS to Identify Activators of Luciferase Translation or Activity in H4 […] Cells. [Related pubchem assays: 1829 (Project Summary), 1814 (Primary HTS)]; type: functional
H4 = test: Luminescence Cell-Based Dose Response HTS to Identify Activators of 5'UTR Stem-Loop Driven Prion Protein mRNA Translation in H4 Neuroglioblastoma Cells. [Related pubchem assays: 1829 (Project Summary), 1814 (Primary HTS)]; type: functional; details: Homo sapiens
H9c2 = test: cells; type: functional, cell-based; details: Rattus norvegicus, H9c2, Myocardium;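 note: confirmatory concentration-response retest of ultra-high-throughput screening hits for modulation of myocardial damage; cell death induced by hydrogen peroxide oxidative stress; compound pretreatment for 60 min then peroxide exposure for 2 h; potency is for protecting the cells against peroxide damage rather than for killing them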
[5] = inhibitors of intracellular T. cruzi replication, confirmation, NIH3T3 host cells, beta-gal luminescence (AID 2044); type: functional, cell-based;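 note: intracellular parasites grown in NIH/3T3 mouse fibroblasts as host cells; luminescent beta-galactosidase reporter signal from transgenic T. cruzi replicating inside host cells; inhibitors lower the luminescence signal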
[6] = cytotoxicity toward NIH3T3 fibroblasts, dose response, counter-screen, cell-based, ATP luminescence, mouse fibroblasts (AID 2010); type: functional;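 note: cells exposed to compound for about 90 hours before reading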
INS1 = test: beta cell apoptosis inhibitors, cytokine rescue, dose response, luminescence, retest (AID 449756); type: functional, cell-based; details: Rattus norvegicus;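 note: cell death triggered by IL-1 beta plus TNF-alpha plus IFN-gamma mixture; protective hits raise ATP signal compared with cytokine alone wells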
[7] = system: Streptococcus sp. 'group A'; test: growth inhibition of control SK(-) GAS strain, dose response, counter-screen for streptokinase expression inhibitor project, luminescence, kanamycin, BacTiterGlo, confirmation (AID 1900); type: functional, organism-based
Streptokinase A = molecular target: T2, Streptokinase A (Streptococcus pyogenes serotype M1, UniProt P10520); test: S. pyogenes streptokinase expression inhibitors, potency, dose response, plasminogen activation absorbance, OD405 (AID 1914); type: functional, Streptococcus pyogenes M1 GAS;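 note: secreted streptokinase activity via plasminogen activation per viability signal from cell pellet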
T2 sequence (P10520 whole entry): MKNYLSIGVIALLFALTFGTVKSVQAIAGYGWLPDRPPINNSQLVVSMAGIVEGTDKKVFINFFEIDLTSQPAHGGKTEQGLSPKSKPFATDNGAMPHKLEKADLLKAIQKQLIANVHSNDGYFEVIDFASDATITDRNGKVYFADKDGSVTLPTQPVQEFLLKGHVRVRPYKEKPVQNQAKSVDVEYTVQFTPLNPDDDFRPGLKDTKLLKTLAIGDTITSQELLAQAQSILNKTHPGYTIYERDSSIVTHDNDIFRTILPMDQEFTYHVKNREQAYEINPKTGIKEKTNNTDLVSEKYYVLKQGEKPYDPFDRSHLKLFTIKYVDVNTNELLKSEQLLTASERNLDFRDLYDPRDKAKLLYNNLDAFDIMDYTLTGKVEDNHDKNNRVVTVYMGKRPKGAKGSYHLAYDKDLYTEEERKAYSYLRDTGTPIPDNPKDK

Streptococcus = test: Group A Streptococcus viability loss, dose response, counter-screen for streptokinase expression inhibitor project, luminescence, BacTiterGlo (AID 1915); type: functional, organism-based;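 note: potency for reduction of bacterial viability or growth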
[8] = intracellular Trypanosoma cruzi inhibitors in host cells – cell-based, plate reader, cherry-pick samples, set 3, dose response (AID 651818); type: functional;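 note: compounds incubated with infected cells for about four days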

T1 sequence (P11940 whole entry): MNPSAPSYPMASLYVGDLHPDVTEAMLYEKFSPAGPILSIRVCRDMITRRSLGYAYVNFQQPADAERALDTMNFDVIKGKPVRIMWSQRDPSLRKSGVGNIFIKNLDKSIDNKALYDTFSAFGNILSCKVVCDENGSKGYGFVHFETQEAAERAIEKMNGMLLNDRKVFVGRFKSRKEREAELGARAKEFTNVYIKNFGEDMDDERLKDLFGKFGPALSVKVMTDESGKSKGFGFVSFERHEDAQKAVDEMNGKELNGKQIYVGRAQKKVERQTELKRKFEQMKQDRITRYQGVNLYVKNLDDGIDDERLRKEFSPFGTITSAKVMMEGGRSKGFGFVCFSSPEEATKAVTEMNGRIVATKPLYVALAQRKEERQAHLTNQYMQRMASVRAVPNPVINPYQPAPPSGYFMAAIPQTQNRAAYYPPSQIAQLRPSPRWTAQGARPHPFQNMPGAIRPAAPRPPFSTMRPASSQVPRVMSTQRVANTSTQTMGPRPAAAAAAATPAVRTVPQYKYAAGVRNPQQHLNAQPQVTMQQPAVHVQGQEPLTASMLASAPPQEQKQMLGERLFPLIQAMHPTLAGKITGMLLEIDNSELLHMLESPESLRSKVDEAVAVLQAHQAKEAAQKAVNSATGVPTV
Cytochrome P450 3A4, sequence (P08684 whole entry): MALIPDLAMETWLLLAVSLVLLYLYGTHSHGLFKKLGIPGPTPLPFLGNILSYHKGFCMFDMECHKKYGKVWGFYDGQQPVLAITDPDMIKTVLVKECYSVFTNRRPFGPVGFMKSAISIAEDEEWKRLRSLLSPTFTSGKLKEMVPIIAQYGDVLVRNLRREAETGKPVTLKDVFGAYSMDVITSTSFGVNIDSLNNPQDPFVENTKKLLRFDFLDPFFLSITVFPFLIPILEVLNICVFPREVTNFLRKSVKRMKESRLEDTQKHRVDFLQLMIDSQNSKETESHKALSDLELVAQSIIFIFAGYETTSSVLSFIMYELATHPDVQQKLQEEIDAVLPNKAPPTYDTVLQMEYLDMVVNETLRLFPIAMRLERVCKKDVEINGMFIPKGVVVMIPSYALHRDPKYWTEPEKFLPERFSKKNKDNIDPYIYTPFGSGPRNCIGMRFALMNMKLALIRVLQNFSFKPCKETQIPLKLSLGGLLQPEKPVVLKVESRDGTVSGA

COc1ccc(-c2csc(NC(=O)CSc3n[nH]c(N)n3)n2)cc1
IC50 [1]: > 66 µM (inactive)
IC50 [2]: > 66 µM (inactive)

CCOC(=O)CC1=C(C(=O)OCC)C(c2ccc(C)o2)C(C#N)=C(N)O1 (stereo unspecified)
IC50 [1]: > 66 µM (inactive)
IC50 [2]: 32 µM (inactive)

CCC1OC(=O)C(C)[C@@H](O[C@H]2C[C@@](C)(OC)C(O)C(C)O2)C(C)[C@@H](O[C@@H]2OC(C)CC(N(C)C)C2O)[C@@](C)(O)CC(C)C(=O)[C@@H](C)C(O)[C@]1(C)O (stereo partly specified)
AC50 (Cytochrome P450 3A4): 31.6 µM (inconclusive)

CCCc1cc(C(=O)NCC(C)C)no1
EC50 [3]: 14.8 µM (active)
EC50 [4]: 22.9 µM (active)

Cc1cc(Nc2nc3ccccc3nc2Cl)n(-c2ccccc2)n1
EC50 [3]: > 120 µM (not active)
EC50 [4]: > 120 µM (not active)
EC50 (H4): > 120 µM (not active)

COC(c1ccccc1)C(C)C(OC)C(C)C(OC)C(C)C(C)=O (stereo unspecified)
AC50 (Cytochrome P450 3A4): 3.98 µM (inconclusive)

COc1cc(C=O)c([N+](=O)[O-])cc1OC
AC50 (Cytochrome P450 3A4): 25.1 µM (inconclusive)

CC(=O)Nc1ccc(SCC(=O)Nc2ccccc2Oc2ccccc2)cc1
IC50 [1]: > 66 µM (inactive)
IC50 [2]: > 66 µM (inactive)

COc1ccc2cc(-c3[nH]ncc3CN3CCCCO3)ccc2c1
EC50 [3]: > 120 µM (not active)
EC50 [4]: 25 µM (active)
EC50 (H4): > 60 µM (not active)

Cc1cc(NS(=O)(=O)c2ccc(NC(=S)NC(=O)c3ccc(Br)cc3)cc2)no1
IC50 [1]: > 66 µM (inactive)
IC50 [2]: > 66 µM (inactive)

COC(=O)c1cc2ccccn2c2c(C(=O)OC)c(C(=O)OC)cc1-2
IC50 (H9c2): > 79 µM (inactive)

Cn1c(-c2ccc(F)cc2)cnc1SCC(=O)Nc1ccccc1N1CCOCC1
EC50 (H4): 0.244 µM (active)

CCc1nnc2c3cnn(-c4ccccc4)c3ncn12
EC50 [3]: 5.12 µM (active)
EC50 [4]: 113 µM (active)
EC50 (H4): > 120 µM (not active)

N#Cc1ccc(C23CC4(C2)[C@H](CN(Cc2ccc(C(F)(F)F)cc2)[C@@H]4c2ccccc2)C3c2ccccc2)cc1 (stereo partly specified)
AC50 (Cytochrome P450 3A4): 25.1 µM (inconclusive)

COC(=O)c1ccc(C23CC4(C2)[C@H](CN(C)[C@@H]4c2ccccc2)C3c2ccccc2)cc1 (stereo partly specified)
AC50 (Cytochrome P450 3A4): 12.6 µM (inconclusive)

Cc1cc(Nc2nc3ccccc3nc2Cl)n(-c2ccc([N+](=O)[O-])cc2)n1
EC50 [5]: 2.24 µM (active)
EC50 [6]: > 60 µM (not active)
AC50 (INS1): 8.83 µM (active)

COc1ccc2occ(C(=O)c3coc4ccc(O)c(CN(C)C)c34)c2c1
IC50 (H9c2): > 79 µM (inactive)

Cn1nc(C(=O)Nc2nc(-c3ccccn3)cs2)c2ccccc2c1=O
IC50 (H9c2): > 79 µM (inactive)

CCCCC(=O)Nc1cc(C)c2c(=O)oc3ccccc3c2n1
IC50 (H9c2): > 79 µM (inactive)

Cc1nc(/N=N\c2cc(S(=O)(=O)O)c3cc([N+](=O)[O-])cc(S(=O)(=O)O)c3c2)c(COP(=O)(O)O)c(C=O)c1O
AC50 (Cytochrome P450 3A4): 15.8 µM (inconclusive)

CC(C)CCn1cc[n+](C2=C([N-]S(=O)(=O)c3ccccc3)C(=O)c3ccccc3C2=O)c1
AC50 (INS1): 4.76 µM (active)

O=C(NC(=S)NC1CCSC1=O)c1cccc([N+](=O)[O-])c1 (stereo unspecified)
IC50 [1]: > 66 µM (inactive)
IC50 [2]: > 66 µM (inactive)

Cc1cccc(OCCn2c(NC(=O)c3ccco3)nc3ccccc32)c1
EC50 [7]: 4.74 µM (active)
EC50 (Streptokinase A): > 150 µM (not active)
EC50 [5]: 1.69 µM (active)
EC50 [6]: 29.8 µM (active)
EC50 (Streptococcus): 7.32 µM (active)
IC50 (H9c2): 11 µM (active)

Cc1ccc(-c2nnc(O)c3ccccc23)cc1N
IC50 (H9c2): 34.5 µM (inactive)

CN(C)S(=O)(=O)c1ccc(NC(=O)COC(=O)Cn2[nH]c(=O)c3ccccc3c2=O)cc1
IC50 (H9c2): > 79 µM (inactive)

CC(Cc1cccs1)NC(=O)NC1CCCCC1 (stereo unspecified)
EC50 [3]: > 60 µM (not active)
EC50 [4]: 68.9 µM (active)
EC50 (H4): 39.8 µM (active)

C=C1CC[C@@H]2O[C@@]2(C)CC[C@H]2[C@H]1CC2(C)C
AC50 (Cytochrome P450 3A4): 39.8 µM (inconclusive)

O=C(CSc1nc(O)c(Cc2ccccc2)c(O)n1)c1ccccc1
EC50 [3]: 14.7 µM (active)
EC50 [4]: > 120 µM (not active)
EC50 (H4): 14.4 µM (active)

COc1ccc(-n2ccnc(SCC(=O)NC3CCCC3)c2=O)cc1OC
IC50 [1]: > 66 µM (inactive)
IC50 [2]: > 66 µM (inactive)

COCCNC(=O)Cc1c(C)c2c(cc(C)c3c(C(C)(C)C)coc32)oc1=O
EC50 [3]: > 120 µM (not active)
EC50 [4]: 10.1 µM (active)
EC50 (H4): > 120 µM (not active)

Cc1ccc2[nH]c(SCc3nc(O)c4ccccc4n3)nc2c1
IC50 (H9c2): > 79 µM (inactive)

Cc1cc(C2(c3cc(C)c(O)cc3C)OS(=O)(=O)c3ccccc32)c(C)cc1O
AC50 (Cytochrome P450 3A4): 7.94 µM (inconclusive)

Cc1ccc(NC(=O)CN2C(=O)S/C(=C/c3ccncc3)C2=O)cc1
IC50 [1]: > 66 µM (inactive)
IC50 [2]: > 66 µM (inactive)

C[C@H](CO)N1C[C@H](C)[C@@H](CN(C)S(=O)(=O)c2ccccc2)Oc2c(NC(=O)Nc3ccccc3)cccc2C1=O
AC50 [8]: 20 µM (inactive)

Cc1c(OCC(=O)NCCN2CCOCC2)ccc2c1oc(=O)c1ccccc12
IC50 (H9c2): > 79 µM (inactive)

Cc1ccc(S(=O)(=O)Nc2ccc3c(c2)CC(=O)N([C@H](C)CO)C[C@@H](C)[C@@H](CN(C)Cc2ccc(C(=O)Nc4ccccc4N)cc2)O3)cc1
AC50 [8]: 3.25 µM (active)

C[C@@H]1CN([C@@H](C)CO)C(=O)c2cccc(NC(=O)CCCCCC(=O)Nc3ccccc3N)c2O[C@H]1CN(C)Cc1ccc(Cl)c(Cl)c1
AC50 [8]: 3.06 µM (active)

C[C@@H]1CN([C@@H](C)CO)C(=O)c2cccc(NS(=O)(=O)c3ccc(Cl)cc3)c2O[C@@H]1CN(C)C(=O)Nc1ccc(C(F)(F)F)cc1
AC50 [8]: 3.58 µM (active)

C[C@@H]1CN([C@H](C)CO)C(=O)Cc2cc(NS(=O)(=O)c3ccccc3)ccc2O[C@@H]1CN(C)Cc1ccc(-c2ccccc2)cc1
AC50 [8]: 3.26 µM (active)

C[C@@H]1CN([C@@H](C)CO)C(=O)c2cccc(NC(=O)CCCCCC(=O)Nc3ccccc3N)c2O[C@@H]1CN(C)Cc1ccc(Oc2ccccc2)cc1
AC50 [8]: 2.17 µM (active)

Cc1ccc(S(=O)(=O)N(C)C[C@H]2Oc3c(NC(=O)CCCCCC(=O)Nc4ccccc4N)cccc3C(=O)N([C@H](C)CO)C[C@@H]2C)cc1
AC50 [8]: 1.42 µM (active)

C[C@@H]1CN([C@@H](C)CO)C(=O)c2cccc(N(C)C)c2O[C@@H]1CN(C)Cc1ccc(Oc2ccccc2)cc1
AC50 [8]: 6.65 µM (active)

C[C@@H]1CN([C@@H](C)CO)C(=O)c2cccc(NC(=O)Nc3ccccc3)c2O[C@@H]1CN(C)S(=O)(=O)c1cccs1
AC50 [8]: 14.8 µM (active)

C[C@H]1CN([C@@H](C)CO)C(=O)c2cc(NC(=O)Nc3cccc4ccccc34)ccc2O[C@H]1CN(C)Cc1ccc(-c2ccccc2)cc1
AC50 [8]: 5.22 µM (active)

C[C@H]1CN([C@@H](C)CO)C(=O)Cc2cc(N(C)C)ccc2O[C@@H]1CN(C)Cc1ccc(-c2ccccc2)cc1
AC50 [8]: 2.21 µM (active)

Cc1nc2ccccc2c(=O)[nH]1
IC50 (H9c2): > 79 µM (inactive)

BrC1C(Br)C(Br)C(Br)C(Br)C1Br (stereo unspecified)
AC50 (Cytochrome P450 3A4): 15.8 µM (inconclusive)

CCCCCCCCCc1ccc(O)cc1 [4-NONYLPHENOL]
AC50 (Cytochrome P450 3A4): 31.6 µM (inconclusive)

C=C1CCC(=O)C(C)CCC2C1CC2(C)C (stereo unspecified) [DIHYDROCARYOPHYLLEN-5-ONE]
AC50 (Cytochrome P450 3A4): 25.1 µM (inconclusive)
